US20070037149A1, “Human calcium transporter 1 gene, screening method of calcium absorption regulating factor, and calcium absorption regulating factor” (priority 2003, published 2007)

What was measured:
human CaT1 [1] = molecular target: T1, human CaT1 (Homo sapiens, UniProt Q9H1D0, I526V); assay: 45Ca2+ uptake by human CaT1 constant expression cells (CHO cells transfected with pMEHis-CaT1); format: cell-based; conditions: preincubated 4 hours; for amount of 45Ca2+ incorporated into the cells versus control: 3.0 mM, ANOVA, FIG. 28
T1 construct: expressed in transfected cells
T1 sequence (Q9H1D0 45-765 I526V): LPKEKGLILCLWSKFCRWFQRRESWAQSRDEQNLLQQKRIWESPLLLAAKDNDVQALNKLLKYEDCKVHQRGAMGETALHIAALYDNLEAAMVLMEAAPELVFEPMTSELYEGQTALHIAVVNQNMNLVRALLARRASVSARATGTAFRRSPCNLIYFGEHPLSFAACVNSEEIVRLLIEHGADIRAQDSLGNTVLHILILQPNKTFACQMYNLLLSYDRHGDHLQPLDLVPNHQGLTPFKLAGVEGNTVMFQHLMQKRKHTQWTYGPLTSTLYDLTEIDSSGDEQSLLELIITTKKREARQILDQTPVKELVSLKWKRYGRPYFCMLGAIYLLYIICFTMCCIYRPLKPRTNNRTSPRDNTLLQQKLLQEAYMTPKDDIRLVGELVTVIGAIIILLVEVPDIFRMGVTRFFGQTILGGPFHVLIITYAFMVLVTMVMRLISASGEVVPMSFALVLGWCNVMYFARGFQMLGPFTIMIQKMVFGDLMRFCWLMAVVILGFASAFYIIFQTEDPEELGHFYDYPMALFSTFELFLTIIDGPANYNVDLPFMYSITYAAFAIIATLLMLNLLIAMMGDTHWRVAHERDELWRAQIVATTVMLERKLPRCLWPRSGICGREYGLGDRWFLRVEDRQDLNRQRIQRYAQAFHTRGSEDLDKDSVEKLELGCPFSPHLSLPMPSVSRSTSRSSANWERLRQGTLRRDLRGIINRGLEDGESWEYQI

human CaT1 [2] = molecular target: T1, human CaT1; assay: as above; format: cell-based; conditions: for amount of 45Ca2+ incorporated, influence of metal ions: versus control, FIG. 14
Method: That is, 1×10^5 cells/well of human CaT1 constant expression cells were cultured on a 24-well plate using a medium obtained by adding 10% FCS (fetal calf serum) was added to the above-mentioned DMEM/F12 medium at 37° C. for 5 days in a CO2 environment. After the medium was removed and the cells were washed with PBS buffer and HBSS buffer, to each well added was HBSS buffer containing 5.28 μM of ^45 Ca^2+, which was removed after a predetermined time (usually for 10 minutes excepting the case in which cultivation time is varied (time course is to be obtained)), the cells were solubilized with 1% triton (triton X-100), and then the cells were recovered. The amount of ^45Ca^2+ incorporated into the cells was measured using a liquid scintillation counter. As a control, CHO cells transfected with no human CaT1 gene were also subjected to the same operations to measure the amount of ^45Ca^2+ incorporated in the cells.
On the other hand, the effects of the metallic ion were examined by the same culture conditions and procedures as those in (4) except that 100 μM each of chloride salts La^3+, Gd^3+, Cd^2+, Co^2+, Fe^2+, Mn^2+, and Mg^2+ (10 mM for Mg2+ only) and 100 μM of choline chloride (Cho-Cl) were added to a HBSS buffer containing 5.28 μM of ^45Ca^2+.
In other words, in regards to a cultured human CaT1 constant expression cells evaluated by the same culture conditions and procedures as those in (4), a medium was displaced by a DMEM (—Ca) medium (Dulbecco's Modified Eagle Medium (cont.) Base Catalog No. 21068, manufactured by GIBCO™ Invitrogen Corporation: KCl 400.00 mg/l, NaCl 6400.00 mg/l, NaHCO3 3700.00 mg/l, NaH2PO4.H2O 125.00 mg/l, D-glucose 4500.00 mg/l, L-isoleucine 105.00 mg/l, L-leucine 105.00 mg/l, L-lysine.HCl 146.00 mg/l, L-tyrosin/2Na.2H2O 104.00mg/l) containing, as the food factor, 7% lactose (special grade reagents) 1% casein enzymatic degradation products, 1% guar gum hydrolysate, and soybean enzymatic degradation products (manufactured by Fuji oil Co., Ltd.), respectively, and the amount of ^45Ca^2+ incorporated into the cells was measured after preincubation for additional 4 hours.
The enzyme-treated sample obtained in (1) was dissolved in DMEM (—Ca) (the same as that used in Example 1(6)) so as to make a concentration of 1.0 (w/v)%. This was added to human CaT1 constant expression cells cultivated by the same culture conditions and the same procedures as those in Example 1(4) and CHO cells transfected with no human CaT1 gene, and these cells were preincubated for 4 hours. A medium contained 2.5% dialyzed (Spectra/POR MWCO:100) FCS and 2% L-glutamine solution.
Immediately after completion of the pretreatement, the amount of ^45Ca^2+ incorporated into the cells was measured by the same technique as used in Example 1(4). On the other hand, the same procedure was followed without addition of the enzyme-treated samples as a control.

[3] = molecular target: human calcium transporter 1 (human CaT1) (human) (UniProt Q9H1D0); assay: cell-based or functional assay
[4] = 100 μM chloride salt in HBSS buffer with 5.28 μM 45Ca2+

Compound: Ile-Pro-Ile [IPI]
- amount of 45Ca2+ incorporated into the cells versus control (human CaT1 [1]): no significant increase

Compound: O=C(O)[C@@H]1CCCN1 [Pro]
- amount of 45Ca2+ incorporated into the cells versus control (human CaT1 [1]): no significant increase

Compound: [Fe+2] [Fe^2+]
- amount of 45Ca2+ incorporated, influence of metal ions (human CaT1 [2]; [4]): no significant difference

Compound: CC[C@H](C)[C@H](N)C(=O)O [Ile]
- amount of 45Ca2+ incorporated into the cells versus control (human CaT1 [1]): no significant increase

Compound: OC[C@H]1O[C@@H](O[C@H]2[C@H](O)[C@@H](O)C(O)O[C@@H]2CO)[C@H](O)[C@@H](O)[C@H]1O (some centres unmarked) [lactose]
- amount of 45Ca2+ incorporated into the cells, influence of food factor (human CaT1 [2]; 7% in DMEM (-Ca) medium, preincubation 4 hours, FIG. 15): increased

Compound: C[C@H](N)C(=O)O [Ala]
- amount of 45Ca2+ incorporated into the cells versus control (human CaT1 [1]): no significant increase

Compound: enzymatic degradation product of cheese whey (CWP-D)
- Km of Ca2+ uptake with CWP-D pretreatment (+CWP-D) [3]: 0.019 mM
- Vmax of Ca2+ uptake with CWP-D pretreatment (+CWP-D) (pmol/mg/10 min) [3]: 1.06
- amount of 45Ca2+ incorporated into human CaT1 constant expression cells (fold of control, 1.0 (w/v)% CWP-D, 4 h pretreatment) [3]: 8 times

Compound: [Mn+2] [Mn^2+]
- amount of 45Ca2+ incorporated, influence of metal ions (human CaT1 [2]; [4]): no significant difference

Compound: Ile-Pro-Ala [peak 1]
- amount of 45Ca2+ incorporated into the cells, HPLC peaks (human CaT1 [1]; 0.5 mg/ml, ANOVA p<0.05 versus other peaks and control, FIG. 25): increased significantly

Compound: [Cl][Cd][Cl] [Cd^2+]
- amount of 45Ca2+ incorporated, influence of metal ions (human CaT1 [2]; [4]): inhibit

Compound: [Mg+2] [Mg^2+]
- amount of 45Ca2+ incorporated, influence of metal ions (human CaT1 [2]; 10 mM (Mg2+ only) in HBSS buffer with 5.28 μM 45Ca2+): no significant difference

Compound: [Co+2] [Co^2+]
- amount of 45Ca2+ incorporated, influence of metal ions (human CaT1 [2]; [4]): inhibit

Compound: Ile-Pro-Ala (IPA) [synthetic peptide IPA]
- amounts of 45Ca2+ incorporated into the cells, influence of concentration (human CaT1 [1]; 0, 0.25, 0.5, 1.0 mg/ml, FIG. 27): significantly increased depending on the concentration

Compound: [Gd+3] [Gd^3+]
- amount of 45Ca2+ incorporated, influence of metal ions (human CaT1 [2]; [4]): inhibit

Compound: [La+3] [La^3+]
- amount of 45Ca2+ incorporated, influence of metal ions (human CaT1 [2]; [4]): inhibit
